Data published in patent US8124381B2, “Process and materials for production of glucosamine and N-acetylglucosamine” (Arkion Life Sciences, priority 2002, dated 2012).
Residue numbers refer to the chain shown, from its start. Names and notes keep the numbering of the source. “Also recorded” adds a separate entry of the source.

What was measured:
[1] = target: T1, E. coli glucosamine synthase GlmS*54 (Escherichia coli, UniProt P17169, A39T/G472S/R250C); assay: Effects of phosphorylated sugars on glucosamine synthase; format: biochemical
T1 construct: made in house; host or cells: E. coli 7107-18 (printed '7017-18'; T7-glmS*54 integrated at galK) and strains derived from it; crude extract
Description: Glucosamine synthetase activity was examined in the presence of various phosphorylated sugars. Crude enzyme extracts was prepared from cells of 7017-18 grown in shake flasks for 24 hours with lactose induction.

[2] = target: phosphoglucoisomerase (Pgi) (Escherichia coli, UniProt P0A6T1); assay: Effect of phosphorylated amino sugars on phosphoglucoisomerase activity; format: biochemical; details: in vitro, FIG. 15
Text: Therefore, effects of glucosamine-6-P and N-acetylglucosamine-6-P on several of the enzymes were examined.

[3] = target: glucosamine N-acetyltransferase (Saccharomyces cerevisiae, UniProt P43577); assay: Product inhibition of glucosamine N-acetyltransferase; format: biochemical
[4] = target: glucose-6-P dehydrogenase (zwf) (Escherichia coli, UniProt P0AC53, A9V); assay: Effect of phosphorylated amino sugars on glucose-6-P dehydrogenase; format: biochemical; details: in vitro, FIG. 16
[5] = Heat stability of purified solid N-acetylglucosamine at 105 C; format: physicochemical; details: 98% pure sample, 2 hours at 105 C
[6] = Solubility of N-acetylglucosamine in water miscible solvents; format: physicochemical; details: IPA, ethanol, methanol, acetone, tetrahydrofuran, dimethylsulfoxide, dimethylformamide, dioxane, acetonitrile
Text: Recovering N-acetylglucosamine-containing solids from the fermentation broth can be enhanced by contacting N-acetylglucosamine in the broth with a water miscible solvent. […] Therefore, by introduction of such a water miscible solvent into the broth, the N-acetylglucosamine will become less soluble and will further recovery.

[7] = Degradation in hydrochloric acid at 90-100 C based on ammonia formation; format: physicochemical; details: 30% hydrochloric acid, 90 C, 3 hours
Description: Glucosamine degradation was examined at 90° C. and 100° C. using 5% and 10% glucosamine hydrochloride (w/w) with 12% and 20% hydrochloric acid by weight. Samples were incubated from 1-24 hours and assayed enzymatically for ammonia using glutamate dehydrogenase. […] Glucosamine degradation is based on ammonia formation.
N-acetylglucosamine was hydrolyzed to glucosamine at 90° C. using the hybridization oven. The reaction was carried out inside a screw capped glass tube. The 30% hydrochloric acid (30 g) was preincubated at 90° C. for 1 hour. After this 10 g solid N-acetylglucosamine was added, quickly dissolved, and a To sample taken. Samples were taken at 30-minute intervals over the next three hours. […] Samples were analyzed for ammonia enzymatically.

[8] = test system: E. coli 7107-18; assay: Effects of N-acetyl glucosamine on E. coli 7107-18; format: cell-based; details: 62 g/L N-acetyl glucosamine in M9A-glucose (40 g/L), also medium pre-incubated more than eight hours
Text: Cells were inoculated into […]-glucose (40 g/L) containing 62 g/L N-acetyl glucosamine.

[9] = Stability of N-acetylglucosamine in M9A medium
Description: The stability of N-acetylglucosamine was tested in an experiment similar to the glucosamine degradation studies. The stability of 80 and 40 g l^−1 N-acetyl glucosamine at pH 5.5 and 7.0 was monitored in medium M9A-without glucose over a period of two days.

[10] = Stability of NAG in fermentation at 37 C and pH 7.0; format: physicochemical; details: after cessation of glucose feed at 37 C and pH 7.0
Text: The use of lower temperature and pH were key factors in stabilizing the GLcN fermentation, primarily due to the labile nature of GLcN at higher pH and temperature. However, it was shown that NAG was stable at neutral pH. Fermentation for NAG production was operated in the pH range of 6.7 to 7.0 throughout the program.

[11] = substrate: O=P(O)(O)OC[C@H]1OC(O)(CO)[C@@H](O)[C@@H]1O; assay: GlmS (glucosamine synthase) inhibition and Michaelis-Menten kinetics, crude extract of strain 2123-12; format: biochemical, Escherichia coli; details: other: crude extracts, nonlinear regression
Description: (§1) Different glucosamine synthetase enzymes, including native B. subtillus GlmS, native E. coli GlmS and mutant E. coli GlmS, were studied in vitro. Cells of various E. coli strains were grown in the M9A medium, harvested, and frozen. Cells extracts were prepared and the glucosamine synthetases were characterized and compared.
(§2) Enzyme sensitivities to the reaction product glucosamine-6-P were examined. […] This figure highlights the dramatic difference between the wild type GlmS and these mutant GlmS strains.
(§3) The Mutants 2123-54 and the B. subtilis enzyme have higher Ki values (Table 6). Measured Ki constants for several of these mutants are 4 to 8 times the value for the native enzyme in strain 2123-12. From shake flask studies it is apparent that decreased sensitivity to glucosamine-6-P allows higher glucosamine levels to accumulate.
(§4) These values are slightly higher than those obtained with the native enzyme.

[12] = substrate: NC(=O)CC[C@H](N)C(=O)O; assay: as above; format: biochemical, Escherichia coli; details: other: crude extracts, nonlinear regression
Description: as §1, §2, §3, §4

[13] = substrate: O=P(O)(O)OC[C@H]1OC(O)(CO)[C@@H](O)[C@@H]1O; assay: GlmS inhibition and Michaelis-Menten kinetics, crude extract of strain 2123-54; format: biochemical, Escherichia coli; details: other: crude extracts
Description: as §1, §2, §3, §4

[14] = substrate: NC(=O)CC[C@H](N)C(=O)O; assay: as above; format: biochemical, Escherichia coli; details: other: crude extracts
Description: as §1, §2, §3, §4

[15] = substrate: O=P(O)(O)OC[C@H]1OC(O)(CO)[C@@H](O)[C@@H]1O; assay: purified protein, by the assay type
[16] = test system: glucosamine synthetase (GlmS); assay: Sensitivity of GlmS enzymes to inhibition by glucosamine-6-P (initial velocity, Ki); format: biochemical, E. coli; B. subtilis; details: 0-30 mM glucosamine-6-P
Description: as §1
Enzyme sensitivities to the reaction product glucosamine-6-P were examined.

[17] = test system: glucosamine synthetase (GlmS); format: biochemical, E. coli; B. subtilis; details: crude extracts
[18] = test system: glucosamine synthetase (GlmS); assay: Thermal stability of GlmS enzymes (denaturation at 50 C); format: biochemical, E. coli; details: crude extracts incubated at 50 C, sampled over 90 minutes, assayed at 25 C
Description: Denaturation at 50° C. was used to measure possible differences in thermal stability of different GlmS enzymes. Crude extracts were incubated at 50° C. and sampled over a 90-minute period. The samples were assayed for glucosamine synthetase activity at 25° C. with saturating levels of all substrates.

Chain of phosphoglucoisomerase (Pgi) (P0A6T1 whole entry): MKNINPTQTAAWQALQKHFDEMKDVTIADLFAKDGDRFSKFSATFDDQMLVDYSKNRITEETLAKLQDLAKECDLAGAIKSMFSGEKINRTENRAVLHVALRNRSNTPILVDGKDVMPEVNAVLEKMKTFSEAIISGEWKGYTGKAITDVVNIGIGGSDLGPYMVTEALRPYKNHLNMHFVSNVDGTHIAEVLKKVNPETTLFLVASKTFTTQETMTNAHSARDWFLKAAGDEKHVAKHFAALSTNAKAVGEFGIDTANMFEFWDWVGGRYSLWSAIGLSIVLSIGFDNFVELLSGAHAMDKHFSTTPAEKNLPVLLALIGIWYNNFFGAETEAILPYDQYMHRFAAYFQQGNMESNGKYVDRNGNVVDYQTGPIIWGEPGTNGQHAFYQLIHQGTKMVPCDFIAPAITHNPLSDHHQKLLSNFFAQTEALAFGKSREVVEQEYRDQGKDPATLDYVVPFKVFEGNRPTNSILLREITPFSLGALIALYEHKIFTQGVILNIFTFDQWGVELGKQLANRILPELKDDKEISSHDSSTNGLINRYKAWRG
T1 sequence (P17169 2-609 A39T/R250C/G472S): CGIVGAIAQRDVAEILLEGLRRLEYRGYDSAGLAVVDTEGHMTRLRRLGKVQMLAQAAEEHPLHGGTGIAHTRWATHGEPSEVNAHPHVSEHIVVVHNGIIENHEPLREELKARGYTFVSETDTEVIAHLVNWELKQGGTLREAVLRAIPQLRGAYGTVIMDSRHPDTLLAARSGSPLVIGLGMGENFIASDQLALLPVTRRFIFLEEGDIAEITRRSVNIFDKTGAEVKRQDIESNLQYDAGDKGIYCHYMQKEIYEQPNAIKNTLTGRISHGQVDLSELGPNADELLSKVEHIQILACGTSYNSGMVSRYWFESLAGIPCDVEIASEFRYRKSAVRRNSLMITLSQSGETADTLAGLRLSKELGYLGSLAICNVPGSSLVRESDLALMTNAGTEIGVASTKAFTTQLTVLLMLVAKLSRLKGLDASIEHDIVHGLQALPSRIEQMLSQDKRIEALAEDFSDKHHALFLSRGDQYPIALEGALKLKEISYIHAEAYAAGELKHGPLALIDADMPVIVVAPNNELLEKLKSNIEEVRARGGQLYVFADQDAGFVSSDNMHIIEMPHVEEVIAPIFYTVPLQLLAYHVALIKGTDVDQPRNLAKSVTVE
Chain of glucose-6-P dehydrogenase (zwf) (P0AC53 whole entry A9V): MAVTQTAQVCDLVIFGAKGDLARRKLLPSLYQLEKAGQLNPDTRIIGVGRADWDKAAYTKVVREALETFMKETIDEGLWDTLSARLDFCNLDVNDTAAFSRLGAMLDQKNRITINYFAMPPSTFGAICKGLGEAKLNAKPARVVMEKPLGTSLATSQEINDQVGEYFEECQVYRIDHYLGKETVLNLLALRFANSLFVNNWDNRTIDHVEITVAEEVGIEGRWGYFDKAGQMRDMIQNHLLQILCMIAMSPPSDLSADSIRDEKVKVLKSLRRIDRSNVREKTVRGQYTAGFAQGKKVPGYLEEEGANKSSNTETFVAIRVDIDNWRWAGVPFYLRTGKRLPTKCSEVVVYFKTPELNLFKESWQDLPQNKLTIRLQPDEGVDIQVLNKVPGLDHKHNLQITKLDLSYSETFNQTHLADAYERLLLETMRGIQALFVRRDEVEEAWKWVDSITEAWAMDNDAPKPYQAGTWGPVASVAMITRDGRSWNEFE
Chain of glucosamine N-acetyltransferase (P43577 whole entry): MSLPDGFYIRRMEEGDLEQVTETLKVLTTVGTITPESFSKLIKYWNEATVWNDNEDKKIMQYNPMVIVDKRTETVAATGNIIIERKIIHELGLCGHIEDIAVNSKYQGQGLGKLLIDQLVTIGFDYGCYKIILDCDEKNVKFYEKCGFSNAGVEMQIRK

Molecule: CC(=O)N[C@H]1C(O)O[C@H](COP(=O)(O)O)[C@@H](O)[C@@H]1O (stereo partly shown) [N-acetylglucosamine-6-P, N-acetylglucosamine-6-phosphate]
- activity at 10000 µM [1]: 100%
- activity at 20000 µM [1]: 100%
- inhibition of phosphoglucoisomerase (Pgi) [2]: significantly less so; also recorded: does not significantly inhibit
- product inhibition of glucosamine N-acetyltransferase [3]: did not show any significant product inhibition
- inhibition of glucose-6-P dehydrogenase (zwf) [4]: does not significantly inhibit

Molecule: CC(=O)N[C@@H](C=O)[C@@H](O)[C@H](O)[C@H](O)CO [N-acetylglucosamine, 2-acetamido-2-deoxy-D-glucose]
- color change on heating [5]: turned light brown
- weight loss on heating [5]: 4.7%
- solubility in water miscible solvents [6]: very insoluble
- degradation based on ammonia levels [7]: around 3.5%
- growth inhibition [8]: No significant growth inhibition
- drop in pH during incubation [9]: no significant drop in pH
- degradation of N-acetyl glucosamine ([9]; 80 and 40 g l-1, pH 5.5 and 7.0, M9A without glucose, two days): No significant degradation
- amber color formation ([9]; M9A medium, 48 hours): No such color formation
- time NAG was stable [10]: at least 50 hours

B1: E. coli GlmS (glucosamine-6-phosphate synthase), wild type, SEQ ID NO:2 (strain 2123-12) (Escherichia coli K-12) (protein)
chain: CGIVGAIAQRDVAEILLEGLRRLEYRGYDSAGLAVVDAEGHMTRLRRLGKVQMLAQAAEEHPLHGGTGIAHTRWATHGEPSEVNAHPHVSEHIVVVHNGIIENHEPLREELKARGYTFVSETDTEVIAHLVNWELKQGGTLREAVLRAIPQLRGAYGTVIMDSRHPDTLLAARSGSPLVIGLGMGENFIASDQLALLPVTRRFIFLEEGDIAEITRRSVNIFDKTGAEVKRQDIESNLQYDAGDKGIYRHYMQKEIYEQPNAIKNTLTGRISHGQVDLSELGPNADELLSKVEHIQILACGTSYNSGMVSRYWFESLAGIPCDVEIASEFRYRKSAVRRNSLMITLSQSGETADTLAGLRLSKELGYLGSLAICNVPGSSLVRESDLALMTNAGTEIGVASTKAFTTQLTVLLMLVAKLSRLKGLDASIEHDIVHGLQALPSRIEQMLSQDKRIEALAEDFSDKHHALFLGRGDQYPIALEGALKLKEISYIHAEAYAAGELKHGPLALIDADMPVIVVAPNNELLEKLKSNIEEVRARGGQLYVFADQDAGFVSSDNMHIIEMPHVEEVIAPIFYTVPLQLLAYHVALIKGTDVDQPRNLAKSVTVE
notes: made in house; host or cells: E. coli strain 2123-12 (T7-glmS integrated in the chromosome), crude cell extract
- Km [11]: 200 µM
- Km [12]: 170 µM

B2: E. coli GlmS mutant GlmS*54, SEQ ID NO:6 (Ala39Thr, Arg250Cys, Gly472Ser) (strain 2123-54) (Escherichia coli K-12; A39T/G472S/R250C) (protein)
chain: B1 chain with A38T, R249C, G471S
notes: made in house; host or cells: E. coli strain 2123-54 (lacZ::T7-glmS*54), crude cell extract
- Km [13]: 640 µM
- Km [14]: 730 µM

B3: Bacillus subtilis GlmS, wild type, SEQ ID NO:16 (Bacillus subtilis subsp. subtilis str. 168) (protein)
chain: CGIVGYIGQLDAKEILLKGLEKLEYRGYDSAGIAVANEQGIHVFKEKGRIADLREVVDANVEAKAGIGHTRWATHGEPSYLNAHPHQSALGRFTLVHNGVIENYVQLKQEYLQDVELKSDTDTEVVVQVIEQFVNGGLETEEAFRKTLTLLKGSYAIALFDNDNRETIFVAKNKSPLLVGLGDTFNVVASDAMAMLQVTNEYVELMDKEMVIVTDDQVVIKNLDGDVITRASYIAELDASDIEKGTYPHYMLKETDEQPVVMRKIIQTYQDENGKLSVPGDIAAAVAEADRIYIIGCGTSYHAGLVGKQYIEMWANVPVEVHVASEFSYNMPLLSKKPLFIFLSQSGETADSRAVLVQVKALGHKALTITNVPGSTLSREADYTLLLHAGPEIAVASTKAYTAQIAVLAVLASVAADKNGINIGFDLVKELGIAANAMEALCDQKDEMEMIAREYLTVSRNAFFIGRGLDYFVCVEGALKLKEISYIQAEGFAGGELKHGTIALIEQGTPVFALATQEHVNLSIRGNVKEVAARGANTCIISLKGLDDADDRFVLPEVNPALAPLVSVVPLQLIAYYAALHRGCDVDKPRNLAKSVTVE
- Km [15]: 620 µM

B4: Wild type Bacillus GlmS: wild-type Bacillus subtilis glucosamine-6-phosphate synthase (SEQ ID NO:16), expressed in E. coli strain 7107-24 (protein, listed as Bacillus subtilis)
chain: MCGIVGYIGQLDAKEILLKGLEKLEYRGYDSAGIAVANEQGIHVFKEKGRIADLREVVDANVEAKAGIGHTRWATHGEPSYLNAHPHQSALGRFTLVHNGVIENYVQLKQEYLQDVELKSDTDTEVVVQVIEQFVNGGLETEEAFRKTLTLLKGSYAIALFDNDNRETIFVAKNKSPLLVGLGDTFNVVASDAMAMLQVTNEYVELMDKEMVIVTDDQVVIKNLDGDVITRASYIAELDASDIEKGTYPHYMLKETDEQPVVMRKIIQTYQDENGKLSVPGDIAAAVAEADRIYIIGCGTSYHAGLVGKQYIEMWANVPVEVHVASEFSYNMPLLSKKPLFIFLSQSGETADSRAVLVQVKALGHKALTITNVPGSTLSREADYTLLLHAGPEIAVASTKAYTAQIAVLAVLASVAADKNGINIGFDLVKELGIAANAMEALCDQKDEMEMIAREYLTVSRNAFFIGRGLDYFVCVEGALKLKEISYIQAEGFAGGELKHGTIALIEQGTPVFALATQEHVNLSIRGNVKEVAARGANTCIISLKGLDDADDRFVLPEVNPALAPLVSVVPLQLIAYYAALHRGCDVDKPRNLAKSVTVE
- sensitivity to GlcN-6-P inhibition / product resistance (in words) [16]: product resistance very comparable to the E. coli mutant GlmS enzymes
- Km (fructose-6-P) [17]: very similar to the mutant E. coli enzyme GlmS*54

B5: WT E. coli GlmS: wild-type E. coli glucosamine-6-phosphate synthase (SEQ ID NO:2), expressed in strain 2123-12 (protein, listed as Escherichia coli)
chain: MCGIVGAIAQRDVAEILLEGLRRLEYRGYDSAGLAVVDAEGHMTRLRRLGKVQMLAQAAEEHPLHGGTGIAHTRWATHGEPSEVNAHPHVSEHIVVVHNGIIENHEPLREELKARGYTFVSETDTEVIAHLVNWELKQGGTLREAVLRAIPQLRGAYGTVIMDSRHPDTLLAARSGSPLVIGLGMGENFIASDQLALLPVTRRFIFLEEGDIAEITRRSVNIFDKTGAEVKRQDIESNLQYDAGDKGIYRHYMQKEIYEQPNAIKNTLTGRISHGQVDLSELGPNADELLSKVEHIQILACGTSYNSGMVSRYWFESLAGIPCDVEIASEFRYRKSAVRRNSLMITLSQSGETADTLAGLRLSKELGYLGSLAICNVPGSSLVRESDLALMTNAGTEIGVASTKAFTTQLTVLLMLVAKLSRLKGLDASIEHDIVHGLQALPSRIEQMLSQDKRIEALAEDFSDKHHALFLGRGDQYPIALEGALKLKEISYIHAEAYAAGELKHGPLALIDADMPVIVVAPNNELLEKLKSNIEEVRARGGQLYVFADQDAGFVSSDNMHIIEMPHVEEVIAPIFYTVPLQLLAYHVALIKGTDVDQPRNLAKSVTVE
- thermal stability at 50 C [18]: little significant difference in thermal stability
